Assays:
[1] = tested on: S. aureus ATCC15975 (MRSA); test: Time-killing assay; type: cell-based, Staphylococcus aureus; conditions: for killing kinetics / capacity, in words: 10 × MIC (brevibacillins 20 μg/ml; nisin 40 μg/ml)
Method: This assay was performed according to a previously described procedure ([Ling et al., 2015]; [Zhao et al., 2020b]). An overnight culture of cells [S. aureus ATCC15975 (MRSA)] was diluted 50-fold in MHB and incubated at 37°C with aeration at 220 rpm. Bacteria were grown to an OD600 of 0.5, and then, the concentration of cells was adjusted to ≈ 5 × 10^6 cells per ml. Bacteria were then challenged with nisin (40 μg/ml), brevibacillin (20 μg/ml), brevibacillin V (20 μg/ml), brevibacillin I (20 μg/ml), or brevibacillin 2V (20 μg/ml) in culture tubes at 37°C and 220 rpm (peptides at 10 × MIC, a desirable concentration at the site of infection). Bacteria not treated with peptides were used as negative controls. At desired time points, 200 μl aliquots were taken, centrifuged at 8,000 g for 2 min, and resuspended in 200 μl of MHB. 10-fold serially diluted samples were plated on MHA plates. After incubated at 37°C overnight, colonies were counted and c.f.u. per ml was calculated. Each experiment was performed in triplicate.

[2] = tested on: S. aureus ATCC15975 (MRSA) membrane; test: DiSC3(5) membrane potential assay; type: cell-based, Staphylococcus aureus; conditions: 2 × MIC; for rank order of membrane disruption capacity: correlates with calculated hydrophobicity
Method: Staphylococcus aureus ATCC15975 (MRSA) was grown to an OD600 of 0.8. The culture was pelleted at 5,000 × g for 5 min and washed three times in 10 mm HEPES with 10 mm glucose (pH 7.2). The cell density was normalized to an OD600 of 0.2, loaded with 2 μm DiSC3(5) dye, and incubated for 20 min in the dark for probe fluorescence to stabilize. After incubation, KCl was added to the cell suspension at a final concentration of 100 mm. Subsequently, the cell suspension was added to a 96-well microplate and incubation for 5 min; after that, antibiotics were added at a final concentration of 2 × MIC. Fluorescence was monitored for 25 min, with the antibiotics added after ~20 s. The excitation and emission wavelengths on the fluorescence spectrometer were adjusted to 622 nm and 670 nm, respectively. Representative examples from three technical replicates are shown.

[3] = Pyrene-labeled Lipid II fluorescence quenching assay; type: binding; conditions: 50 μM DOPC LUVs with 0.5 mol % pyrene-labeled Lipid II, 20°C, ex 350 nm
Method: The effects of antibiotics on pyrene-labeled Lipid II were measured using 50 μm DOPC-based large unilamellar vesicles (LUVs) containing 0.5 mol % pyrene-labeled Lipid II ([Breukink et al., 2003]). Briefly, the LUVs were added to a quartz cuvette and titrated with nisin, brevibacillin, or brevibacillin 2V with stirring at 20°C. The fluorescence spectra were recorded between 360 and 600 nm (λex350 nm) using a Cary Eclipse Fluorescence Spectrophotometer (Agilent, United States).

[4] = Carboxyfluorescein leakage assay, DOPC LUVs with 0.1% Lipid II; conditions: peptide 100 nM; for membrane permeabilization (CF leakage), Lipid II containing LUVs: LUVs 5 μM, DOPC plus 0.1% Lipid II, 25 mM Tris-HCl, 150 mM NaCl, pH 7.5, ex 492/em 515 nm
Method: LUVs that contain DOPC or DOPC plus 0.1% Lipid II were prepared for a carboxyfluorescein (CF) leakage assay. The lipids were dried by a nitrogen stream and followed under vacuum for 2 h. After that, the lipids were hydrated by adding 25 mm Tris-HCl, 150 mm NaCl, and pH 7.5 containing 50 mm CF. The suspensions were frozen and thawed 10 times, followed by extrusion through 200nm membrane filters (Whatman Nuclepore, Track-Etch Membranes) 10 times. The excess dye was removed by loading vesicles on a spin column (Sephadex G50) for 2 min at 500 × g. Subsequently, the vesicles were diluted to 5 μm, and the brevibacillins-induced release of CF from the vesicles was monitored by measuring the increase in fluorescence intensity. The maximum fluorescence was reached by adding 10 μl of 20% Triton X-100. A Cary Eclipse Fluorescence Spectrophotometer (Agilent, United States) was used to determine the changes of fluorescence signals, and the excitation wavelength and emission wavelength were adjusted to 492 nm and 515 nm, respectively.

[5] = tested on: Staphylococcus aureus (MRSA); conditions: ref Zhao et al., cited from earlier work; for MIC: Staphylococcus aureus (MRSA), Figure 1, 2021; for MIC (molar): strain not given, compared with CF leakage concentration, 2021 (MIC source, b3)
From the text: Figure 1 Structures of brevibacillins. The red color indicates the more hydrophobic amino acid residues of brevibacillin V, brevibacillin and brevibacillin I relative to brevibacillin 2V. MIC, the minimum inhibitory concentration against Staphylococcus aureus (MRSA). HC50, the 50% human blood cell hemolysis concentration. CC50, the 50% cell (HepG2) toxicity concentration. […] LUVs-based CF leakage assay is widely used in the studies of the antibiotic mode of action ([Hasper et al., 2004]; [Smith et al., 2008]; [Slootweg et al., 2015]; [Bakhtiary et al., 2017]). Disruption of the vesicle membrane by certain compounds releases CF from the LUVs into the extra-vesicular milieu resulting in increased fluorescence signal (Figure ...

HepG2 = conditions: Figure 1, ref Zhao et al., 2021; cited from earlier work
From the text: (§1) A vast number of bacterial non-ribosomally produced peptides (NRPs) have shown strong antimicrobial activity against pathogenic bacteria ([Cochrane et al., 2014]; [Cociancich et al., 2015]; [Hamamoto et al., 2015]; [Ling et al., 2015]; [Süssmuth and Mainz, 2017]). Lipo-tridecapeptides, a class of NRPs, show strong antimicrobial activity against Gram-positive pathogens, including antibiotic-resistant Staphylococcus aureus and Enterococcus spp. ([Barsby et al., 2001], [2006]; [Yang et al., 2016]; [Wu et al., 2019]; [Zhao et al., 2021]). However, many of these lipo-tridecapeptides have shown high ... || Figure 1 Structures of brevibacillins. The red color indicates the more hydrophobic amino acid residues of brevibacillin V, brevibacillin and brevibacillin I relative to brevibacillin 2V. MIC, the minimum inhibitory concentration against Staphylococcus aureus (MRSA). HC50, the 50% human blood cell hemolysis concentration. CC50, the 50% cell (HepG2) toxicity concentration.

human red blood cells = conditions: 2021, cited from earlier work; for HC50, 50% human blood cell hemolysis concentration: Figure 1, ref Zhao et al.
From the text: as §1

Substance | killing kinetics / capacity, in words ([1]; MHB, 37°C) | time to complete killing of all cells ([1]; 10 × MIC (nisin 40 μg/ml; brevibacillins 20 μg/ml), ≈ 5 × 10^6 cells per ml, MHB, 37°C, 220 rpm, triplicate) | speed of membrane permeabilization [2] | rank order of membrane disruption capacity [2] | excimer fluorescence (about 490 nm) [3] | pyrene monomer fluorescence [3] | percentage of CF leakage, comparison in words ([4]; LUVs with 0.1% Lipid II) | membrane permeabilization (CF leakage), Lipid II containing LUVs [4] | MIC [5] | MIC (molar) [5] | CC50, 50% cell (HepG2) toxicity concentration (HepG2) | HC50, 50% human blood cell hemolysis concentration (human red blood cells) | bactericidal or bacteriostatic action ([1]; S. aureus (MRSA), 10 × MIC) | cytotoxicity relative to the other brevibacillins (HepG2) | hemolytic activity (human red blood cells; 128 mg/L, ref Zhao et al.)
Brevibacillin | intermediate killing capacity | ≤ 2 h | appeared to act faster than brevibacillin 2V and the well-known pore-forming antibiotic nisin | brevibacillin I > brevibacillin > brevibacillin V > brevibacillin 2V | no excimer fluorescence could be detected | decreased the monomer fluorescence | higher percentage of CF leakage than brevibacillin 2V | rapid membrane permeabilization | 2 µg/mL | 1.3 µM | 5.21 ± 0.01 µg/mL | 25.1 ± 0.1 mg/L |  |  | 
Brevibacillin 2V | slowest killing capacity among brevibacillins, with similar killing kinetics as nisin |  |  | brevibacillin I > brevibacillin > brevibacillin V > brevibacillin 2V | no excimer fluorescence could be detected | decreased the monomer fluorescence |  | rapid membrane permeabilization | 2 µg/mL | 1.3 µM | 45.49 ± 0.24 µg/mL | > 128 mg/L | bactericidal antimicrobial agent | much lower cytotoxicity than the other brevibacillins | no hemolytic activity
